Measured values taken from patent publication US20180228711A1, “3-(4-HYDROXYPHENYL) PROPANOIC ACID AMIDE FOR USE IN TISSUE REPAIR AND/OR SKIN BRIGHTENING” (NMETICS IVS, priority 2015, published 2018).

What was measured:
Type in all cases: cell-based
B10F16 mouse melanocytes = experiment: skin de-pigmentation assay (cell pellet colour intensity)
Method: The assay was standardized using B10F16 mouse melanocytes with cell numbers at a density ranging from 5×10^4 to 1×10^5 cells per ml. […] The following day the cells were pre-treated with 80 μM of PA and 10 μM+control for 2 h, 24 h, 72 h and 96 h.
Cells were then collected, counted for cell number and equal numbers were pelleted. The cell pellet was visually observed for colour intensity and quantified. The same cell pellet was then used for protein extraction and immunoblot analysis.
Test solution preparation: Stock solutions of the test compound are prepared by dissolving in DMSO. The stock solutions were filter sterilized, stored in fridge at 4° C., and were used for experiments by dilution it in the cell culture medium as required.
Mouse melanocytes (B10F16 cell line) were maintained in Dulbecco's modified Eagle's medium (DMEM; Invitrogen) supplemented with 10% foetal bovine serum (v/v; Invitrogen), 2 mM glutamine, and 1% non-essential amino-acids.
Cells were sub-cultured at 37° C., 5% CO2 and 95% humidity, were fed approximately 16 h prior to each assay and cell number was determined in duplicates using a Coulter Z2 counter (Beckman Coulter). Mouse melanocytes were sub-cultured when they reached confluence at a split ratio 1:4.

human fibroblast cells [1] = experiment: bi-directional scratch assay (cell migration); details: fibroblasts pre-treated with PA 80 μM for three days; bidirectional scratch
Method: Fibroblasts were pre-treated with PA (80 μM) for three days before performing the scratch assay. Migration was quantified by a micrometer scale (see FIG. 3).
(§1) Delicate cell monolayers at confluency are mechanically disrupted leaving an area devoid of cells. This procedure is accomplished by a “scrape” made on the cells and later advancement of the adjacent cells into the open area by cell mechanical migration, which is monitored by microscopy. Depending on the cell type, the covering process can take from many hours to less than a day, which is entirely dependent on the type of cells and extent of the scrape. The rate or the extent of migration of the cells (often termed as repopulation rate) can be calculated by a series of photomicrographs.
• Plate fibroblasts at a density 1×10^4 in 35 mm tissue culture plates and incubate for three days using novel test compounds with a control at 37° C., 5% CO2. • At confluency, displace a group of cells within the monolayer by making one streak using a sterile pipette tip. • Photograph under phase contrast microscopy sequentially at an interval of 19 hrs post scraping. • Using an ocular micrometer measure the scrape size at each time point. • Evaluate statistical significance by Student's t test. • Observe significant differences in scrape repairin PA pre-treatment on fibroblasts.

human fibroblast cells [2] = experiment: uni-directional scratch assay (cell migration); details: fibroblasts pre-treated with PA 80 μM for three days; after 24 hrs
Method: Fibroblasts were pre-treated with PA (80 μM) for three days before performing the scratch assay.
as §1
• Plate fibroblasts at a density 1×10^4 in 35 mm tissue culture plates and incubate for three days using novel test compounds with a control at 37° C., 5% CO2. • At confluency, displace a group of cells within the […] measure the scrape size at each time point. • Evaluate statistical significance by Student's t test. • Observe significant differences in scrape repairin PA pre-treatment on fibroblasts.

fibroblast cells = experiment: Boyden chamber chemotactic migration assay; details: PA treated vs controls; three independent assays
Method: 48-well Microchemotaxis Chamber Protocol
NOTE: The following directions assume that you are working with polycarbonate filters.
• 1. Adjust a variable-volume micropipette with a 1 mm tip so that the ejected liquid fills a bottom well. The well will hold 25 to 26 μL. A slight positive meniscus should form when the well is filled; this prevents air bubbles from being trapped when the filter is applied. • 2. Orient the bottom plate on a flat surface so that the NP trademark is at the upper left. Warm chemo-attractants or control reagents to about 37° C. and de-gas them by vortex or vacuum. Fill the bottom wells, completing the 48 wells in no more than 5 minutes, to prevent excessive evaporation. • 3. Cut 1 mm off the corner of a filter membrane and orient it with the cut corner at the upper left. Lift the filter by the ends with two forceps, hold it evenly over the filled wells, and lower it onto them, allowing the middle portion of the filter to make contact first. The filter position can be adjusted at this point if necessary, but note that too much movement will cause contamination between wells. • 4. Apply the silicone gasket with its cut corner at the upper left, then the top plate, aligning its NP trademark with the trademark on the bottom plate. […] With your free hand, apply and tighten the thumb nuts until finger tight.
• 1. […]

[3] = tested on: fibroblasts embedded in collagen lattice; experiment: free floating collagen lattice contraction assay; details: PA pre-treated embedded fibroblasts; two independent experiments
Method: Collagen type I from bovine skin can be purchased from IBFB Pharma GmbH, Leipzig, Germany and is prepared according to the distributed protocols.
Cells are trypsinized, suspended in complete growth medium and carefully mixed in the collagen solution (collagen in 0.9×DMEM, 10% FCS, 0.2 mM NaOH, prepared at room temperature). Final cell concentrations might range from 0.8×10^4 to 3×10^5 cells/ml lattice. Final concentration of collagen might range from 0.3-0.6 mg/ml lattice.
After mixing, the solution is placed onto bacteriological Petri dishes and immediately put back into the incubator.
Half an hour after polymerization in the incubator, the lattices are carefully detached from the borders of the dishes using a pipette tip. It is important that the Free Floating Collagen Lattices “swim” freely in the medium.
Measurement of the diameter is performed at different time points depending on cell type and seeded cell number. Measurement can be done using a scale paper. From the diameter the area of the collagen lattice can be calculated and their size can be compared at different time points.
Production of collagen lattices: • Estimated time for 20 lattices=1 h conduction plus 1 h until medium addition. • Per assay, 20 empty 35 mm cell culture dishes were pre-warmed to 37° C. […]

| Compound | cell pellet colour, % lighter relative to −control (B10F16 mouse melanocytes; Hydroquinone at 10 μM, after 96 hrs) | improvement of tissue migration over the untreated (human fibroblast cells [1]) | enhancement of migration (tissue repair) in vitro, uni-directional cell migration (human fibroblast cells [2]) | enhancement of chemotactic migration towards chemo-attractants (factor) (fibroblast cells) | improvement of collagen contraction [3] [%] | colour change of cell pellet (inhibition of melanin production) (B10F16 mouse melanocytes; PA 80 μM, visual observation) | cell pellet colour, % lighter relative to −control (B10F16 mouse melanocytes; compound at 80 μM, after 96 hrs) | cell pellet colour, % lighter relative to +control (B10F16 mouse melanocytes; compound at 80 μM, after 96 hrs, relative to hydroquinone 10 μM) |
| --- | --- | --- | --- | --- | --- | --- | --- | --- |
| Oc1ccc(O)cc1 [+C, Hydroquinone, reference compound] | 78% lighter (78% relative to −control) | – | – | – | – | – | – | – |
| NC(=O)CCc1ccc(O)cc1 [PA, 3-(4-hydroxyphenyl)propanoic acid amide] | – | about 37% | more than 60% | 2.7 | 85 | distinct color change from dark to pale | 50% lighter (relative to − control) | 39% lighter (relative to +control) |
